Assays:
Details in all cases: mean ± SD, n = 3
[1] = β-carotene bleaching test
Procedure: (§1) All the procedures were previously detailed. The Relative Antioxidant Capacity Index (RACI) was applied to evaluate the sample characterized by the highest activity. Linear regression, assessment of repeatability, calculation of average, relative standard deviation (SD), and Pearson’s correlation coefficient (r) were calculated by using Microsoft Excel 2010 software (Redmond, WA, USA). The results were expressed as the means of three different experiments ± SD.

[2] = ABTS radical scavenging test
Procedure: as §1

[3] = DPPH radical scavenging test
Procedure: as §1

SMILES | β-Carotene Bleaching Test (IC50) [1] [mg/L] | ABTS Test (IC50) [2] [mg/L] | DPPH Test (IC50) [3] [mg/L]
CCCOC(=O)c1cc(O)c(O)c(O)c1 [Propyl gallate] | 0.09 ± 0.04 | – | –
O=C1O[C@H]([C@@H](O)CO)C(O)=C1O [Ascorbic acid] | – | 1.72 ± 0.14 | 5.04 ± 0.81

From article PMC10001106, “A New Bloody Pulp Selection of Myrobalan (Prunus cerasifera L.): Pomological Traits, Chemical Composition, and Nutraceutical Properties” (Foods, 2023)
